These compounds were tested against T1, human β3 adrenergic receptor (Homo sapiens, UniProt P13945) (assay: Beta-3 agonist in vitro functional assay: cAMP production (LANCE TR-FRET) in CHO cells stably transfected with the cloned β3 receptor). Settings: Table 8; Beta-3 agonist in vitro functional assay; read-out: Human β3 agonist functional activity.
T1 construct: expressed in transfected cells; host or cells: Chinese hamster ovary (CHO) cells, stably transfected
Assay type: cell-based
In short: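 CHO cells stably expressing the cloned receptor, in HEPES-buffered HBSS with BSA and 0.6 mM IBMX, 6,000 cells/well, exposed to compound for 30 min at RT. cAMP read by LANCE TR-FRET against a cAMP standard curve. Isoproterenol defines maximal stimulation.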

T1 sequence (P13945 whole entry): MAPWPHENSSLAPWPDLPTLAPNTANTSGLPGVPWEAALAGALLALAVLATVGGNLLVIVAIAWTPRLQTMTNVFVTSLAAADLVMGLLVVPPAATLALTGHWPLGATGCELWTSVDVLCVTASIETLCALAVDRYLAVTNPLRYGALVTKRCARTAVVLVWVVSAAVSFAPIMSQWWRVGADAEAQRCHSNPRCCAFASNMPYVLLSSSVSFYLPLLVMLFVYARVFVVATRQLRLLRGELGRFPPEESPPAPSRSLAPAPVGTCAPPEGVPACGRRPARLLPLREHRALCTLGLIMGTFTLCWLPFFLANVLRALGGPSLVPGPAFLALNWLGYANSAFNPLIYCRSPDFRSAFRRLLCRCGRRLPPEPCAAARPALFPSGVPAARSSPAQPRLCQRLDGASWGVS

SMILES	EC50
O=C(c1ccc(C[C@@H]2CC[C@H]([C@H](O)c3ccccc3)N2)cc1)N1CCC(C(=O)O)(c2ccccc2)CC1 [Example 241]	100 to 999 nM
O=C(c1ccc(C[C@@H]2CC[C@H]([C@H](O)c3ccccc3)N2)cc1)N1CCC(c2ccccc2)(c2nnn[nH]2)CC1 [Example 242]	10 to 99.9 nM
CC1(c2nn[nH]n2)CCN(C(=O)c2ccc(C[C@@H]3CC[C@H]([C@H](O)c4ccccc4)N3)cc2)CC1 [Example 243]	100 to 999 nM
Cn1nnnc1C1(C)CCN(C(=O)c2ccc(C[C@@H]3CC[C@H]([C@H](O)c4ccccc4)N3)cc2)CC1 [Example 244]	100 to 999 nM
O=C(c1ccc(C[C@@H]2CC[C@H]([C@H](O)c3ccccc3)N2)cc1)N1CCC(O)(Cc2ccccc2)CC1 [Example 245]	10 to 99.9 nM
Cc1ccc(CC2(O)CCN(C(=O)c3ccc(C[C@@H]4CC[C@H]([C@H](O)c5ccccc5)N4)cc3)CC2)cc1 [Example 246]	10 to 99.9 nM
COc1ccc(C2(CNC(=O)C(C)(C)C)CCN(C(=O)c3ccc(C[C@@H]4CC[C@H]([C@H](O)c5cccnc5)N4)cc3)CC2)cc1 [Example 247]	100 to 999 nM
CCCN(CCC)C(=O)CC1(c2ccccc2)CCN(C(=O)c2ccc(C[C@@H]3CC[C@H]([C@H](O)c4ccccc4)N3)cc2)CC1 [Example 248]	100 to 999 nM
Cc1nnc(C2(C3CCCCC3)CCN(C(=O)c3ccc(C[C@@H]4CC[C@H]([C@H](O)c5ccccc5)N4)cc3)CC2)o1 [Example 249]	100 to 999 nM
O=C(c1ccc(C[C@@H]2CC[C@H]([C@H](O)c3ccccc3)N2)cc1)N1CCC2(CCNC2=O)CC1 [Example 250]	10 to 99.9 nM
CN1CCC2(CCN(C(=O)c3ccc(C[C@@H]4CC[C@H]([C@H](O)c5ccccc5)N4)cc3)CC2)C1=O [Example 251]	100 to 999 nM
CCN1CCC2(CCN(C(=O)c3ccc(C[C@@H]4CC[C@H]([C@H](O)c5ccccc5)N4)cc3)CC2)C1=O [Example 252]	100 to 999 nM
O=C(c1ccc(C[C@@H]2CC[C@H]([C@H](O)c3ccccc3)N2)cc1)N1CCC2(CC1)CCN(c1ccccc1)C2=O [Example 254]	100 to 999 nM
O=C(c1ccc(C[C@@H]2CC[C@H]([C@H](O)c3ccccc3)N2)cc1)N1CCC2(CC1)CCN(Cc1ccccc1)C2=O [Example 255]	1 to 9.9 nM
O=C(c1ccc(C[C@@H]2CC[C@H]([C@H](O)c3ccccc3)N2)cc1)N1CCC2(CCCNC2=O)CC1 [Example 256]	100 to 999 nM
CN1CCCC2(CCN(C(=O)c3ccc(C[C@@H]4CC[C@H]([C@H](O)c5ccccc5)N4)cc3)CC2)C1=O [Example 257]	100 to 999 nM
O=C(c1ccc(C[C@@H]2CC[C@H]([C@H](O)c3ccccc3)N2)cc1)N1CCC2(CC1)NCNC2=O [Example 258]	10 to 99.9 nM
O=C(c1ccc(C[C@@H]2CC[C@H]([C@H](O)c3cccnc3)N2)cc1)N1CCC2(CC1)C(=O)NCN2c1ccccc1 [Example 259]	1 to 9.9 nM
O=C(c1ccc(C[C@@H]2CC[C@H]([C@H](O)c3ccccc3)N2)cc1)N1CCC2(CC1)C(=O)NCN2c1ccccc1 [Example 260]	< 1 nM
O=C(c1ccc(C[C@@H]2CC[C@H]([C@H](O)c3ccccc3)N2)cc1)N1CCC2(CC1)C(=O)NCC2c1ccccc1 (some centres unmarked) [Example 261]	< 1 nM
CN1CC(c2ccc(F)cc2)C2(CCN(C(=O)c3ccc(C[C@@H]4CC[C@H]([C@H](O)c5ccccc5)N4)cc3)CC2)C1=O (some centres unmarked) [Example 262]	< 1 nM

SMILES	EC50
O=C(c1ccc(C[C@@H]2CC[C@H]([C@H](O)c3ccccc3)N2)cc1)N1CCC2(CC1)C(=O)NCC2c1ccc(C(F)(F)F)cc1 (some centres unmarked) [Example 263]	< 1 nM
O=C(c1ccc(C[C@@H]2CC[C@H]([C@H](O)c3ccccc3)N2)cc1)N1CCC2(CC1)C(=O)NCC2c1cccc(C(F)(F)F)c1 (some centres unmarked) [Example 264]	< 1 nM
O=C(c1ccc(C[C@@H]2CC[C@H]([C@H](O)c3ccccc3)N2)cc1)N1CCC2(CC1)C(=O)NCC2c1ccccc1C(F)(F)F (some centres unmarked) [Example 265]	1 to 9.9 nM
O=C(c1ccc(C[C@@H]2CC[C@H]([C@H](O)c3ccccc3)N2)cc1)N1CCC2(CC1)C(=O)NCC2c1ccccn1 (some centres unmarked) [Example 266]	1 to 9.9 nM
O=C1NC(=O)C2(CCN(C(=O)c3ccc(C[C@@H]4CC[C@H]([C@H](O)c5ccccc5)N4)cc3)CC2)N1 [Example 267]	10 to 99.9 nM
O=C1NC(=O)C2(CCN(C(=O)c3ccc(C[C@@H]4CC[C@H]([C@H](O)c5cccnc5)N4)cc3)CC2)N1 [Example 268]	10 to 99.9 nM
O=C(c1ccc(C[C@@H]2CC[C@H]([C@H](O)c3ccccc3)N2)cc1)N1CCC2(CC1)NC(=O)N(Cc1ccccc1)C2=O [Example 269]	10 to 99.9 nM
O=C(c1ccc(C[C@@H]2CC[C@H]([C@H](O)c3cccnc3)N2)cc1)N1CCC2(CC1)NC(=O)N(Cc1ccccc1)C2=O [Example 270]	10 to 99.9 nM
O=C1NC2(CCN(C(=O)c3ccc(C[C@@H]4CC[C@H]([C@H](O)c5ccccc5)N4)cc3)CC2)CO1 [Example 271]	100 to 999 nM
O=C1NCC2(CCN(C(=O)c3ccc(C[C@@H]4CC[C@H]([C@H](O)c5ccccc5)N4)cc3)CC2)O1 [Example 272]	100 to 999 nM
O=C1CCC2(CCN(C(=O)c3ccc(C[C@@H]4CC[C@H]([C@H](O)c5ccccc5)N4)cc3)CC2)O1 [Example 273]	10 to 99.9 nM
CC1CC2(CCN(C(=O)c3ccc(C[C@@H]4CC[C@H]([C@H](O)c5ccccc5)N4)cc3)CC2)OC1=O (some centres unmarked) [Example 274]	10 to 99.9 nM
O=C1OC2(CCN(C(=O)c3ccc(C[C@@H]4CC[C@H]([C@H](O)c5ccccc5)N4)cc3)CC2)CC1Cc1ccc(F)cc1 (some centres unmarked) [Example 276]	1 to 9.9 nM
O=C1OC2(CCN(C(=O)c3ccc(C[C@@H]4CC[C@H]([C@H](O)c5cccnc5)N4)cc3)CC2)CC1Cc1ccc(F)cc1 (some centres unmarked) [Example 277]	1 to 9.9 nM
CC1(Cc2ccc(F)cc2)CC2(CCN(C(=O)c3ccc(C[C@@H]4CC[C@H]([C@H](O)c5ccccc5)N4)cc3)CC2)OC1=O (some centres unmarked) [Example 278]	< 1 nM
CC1(C)CC2(CCN(C(=O)c3ccc(C[C@@H]4CC[C@H]([C@H](O)c5ccccc5)N4)cc3)CC2)OC1=O [Example 279]	10 to 99.9 nM
O=C1CC(c2ccccc2)C2(CCN(C(=O)c3ccc(C[C@@H]4CC[C@H]([C@H](O)c5ccccc5)N4)cc3)CC2)O1 (some centres unmarked) [Example 280]	1 to 9.9 nM
O=C1C=C(c2ccccc2)C2(CCN(C(=O)c3ccc(C[C@@H]4CC[C@H]([C@H](O)c5ccccc5)N4)cc3)CC2)O1 [Example 281]	1 to 9.9 nM
O=C(c1ccc(C[C@@H]2CC[C@H]([C@H](O)c3ccccc3)N2)cc1)N1CCC2(CCCC2n2cccn2)CC1 (some centres unmarked) [Example 282]	100 to 999 nM
O=C1OC2(CCN(C(=O)c3ccc(C[C@@H]4CC[C@H]([C@H](O)c5ccccc5)N4)cc3)CC2)c2ccccc21 [Example 283]	10 to 99.9 nM
O=C1OC2(CCN(C(=O)c3ccc(C[C@@H]4CC[C@H]([C@H](O)c5cccnc5)N4)cc3)CC2)c2ccccc21 [Example 284]	1 to 9.9 nM

SMILES	EC50
O=C1OC2(CCN(C(=O)c3ccc(C[C@@H]4CC[C@H]([C@H](O)c5ccccc5)N4)cc3)CC2)c2ccncc21 [Example 285]	10 to 99.9 nM
O=C1OC2(CCN(C(=O)c3ccc(C[C@@H]4CC[C@H]([C@H](O)c5ccccc5)N4)cc3)CC2)c2cccnc21 [Example 286]	10 to 99.9 nM
O=C1OC2(CCN(C(=O)c3ccc(C[C@@H]4CC[C@H]([C@H](O)c5ccccc5)N4)cc3)CC2)c2ncccc21 [Example 287]	10 to 99.9 nM
COc1ccc2c(n1)C1(CCN(C(=O)c3ccc(C[C@@H]4CC[C@H]([C@H](O)c5ccccc5)N4)cc3)CC1)OC2=O [Example 288]	10 to 99.9 nM
O=C1OC2(CCN(C(=O)c3ccc(C[C@@H]4CC[C@H]([C@H](O)c5ccccc5)N4)cc3)CC2)c2scnc21 [Example 289]	10 to 99.9 nM
O=C(c1ccc(C[C@@H]2CC[C@H]([C@H](O)c3ccccc3)N2)cc1)N1CCC2(CC1)C(=O)Oc1ccccc12 [Example 290]	10 to 99.9 nM
O=C(c1ccc(C[C@@H]2CC[C@H]([C@H](O)c3cccnc3)N2)cc1)N1CCC2(CCOC2=O)CC1 [Example 292]	10 to 99.9 nM
CC1(C)CC2(CCN(C(=O)c3ccc(C[C@@H]4CC[C@H]([C@H](O)c5ccccc5)N4)cc3)CC2)C(=O)O1 [Example 293]	1 to 9.9 nM
CC1(C)CC2(CCN(C(=O)c3ccc(C[C@@H]4CC[C@H]([C@H](O)c5cccnc5)N4)cc3)CC2)C(=O)O1 [Example 294]	1 to 9.9 nM
CC1(C)CC2(CCN(C(=O)c3ccc(C[C@@H]4CC[C@H]([C@H](O)c5ccc[n+]([O-])c5)N4)cc3)CC2)C(=O)O1 [Example 295]	100 to 999 nM
CC1COC(=O)C12CCN(C(=O)c1ccc(C[C@@H]3CC[C@H]([C@H](O)c4ccccc4)N3)cc1)CC2 (some centres unmarked) [Example 296]	1 to 9.9 nM
CC1OC(=O)C2(CCN(C(=O)c3ccc(C[C@@H]4CC[C@H]([C@H](O)c5ccccc5)N4)cc3)CC2)C1C (some centres unmarked) [Example 297]	1 to 9.9 nM
CC1(C)COC(=O)C12CCN(C(=O)c1ccc(C[C@@H]3CC[C@H]([C@H](O)c4ccccc4)N3)cc1)CC2 [Example 298]	1 to 9.9 nM
O=C(c1ccc(C[C@@H]2CC[C@H]([C@H](O)c3ccccc3)N2)cc1)N1CCC2(CC1)C(=O)Nc1ccccc12 [Example 299]	10 to 99.9 nM
Cc1ccc2c(c1)NC(=O)C21CCN(C(=O)c2ccc(C[C@@H]3CC[C@H]([C@H](O)c4ccccc4)N3)cc2)CC1 [Example 300]	10 to 99.9 nM
O=C(c1ccc(C[C@@H]2CC[C@H]([C@H](O)c3cccnc3)N2)cc1)N1CCC2(CC1)SCc1ccccc12 [Example 301]	100 to 999 nM
O=C(c1ccc(C[C@@H]2CC[C@H]([C@H](O)c3ccccc3)N2)cc1)N1CCC2(CC1)c1ccccc1CS2(=O)=O [Example 302]	10 to 99.9 nM
O=C(c1ccc(C[C@@H]2CC[C@H]([C@H](O)c3ccccc3)N2)cc1)N1CCC2(CC1)OCCS2(=O)=O [Example 303]	10 to 99.9 nM
O=C(c1ccc(C[C@@H]2CC[C@H]([C@H](O)c3ccccc3)N2)cc1)N1CCC2(CC1)OCC[S+]2[O-] (some centres unmarked) [Example 304]	100 to 999 nM
O=C(c1ccc(C[C@@H]2CC[C@H]([C@H](O)c3ccccc3)N2)cc1)N1CCC2(CCCN2)CC1 [Example 305]	100 to 999 nM
